In patent US9365522B2, “Pyrazole amide derivative” (AMGEN INC., priority 2015, dated 2016):

Molecular target: T1, ligand binding domain of human ROR gamma (Homo sapiens, UniProt P51449)
T1 construct: NM_001001523; expressed in transfected cells; host or cells: HEK293T
T1 sequence (P51449 247-497 isoform P51449-2): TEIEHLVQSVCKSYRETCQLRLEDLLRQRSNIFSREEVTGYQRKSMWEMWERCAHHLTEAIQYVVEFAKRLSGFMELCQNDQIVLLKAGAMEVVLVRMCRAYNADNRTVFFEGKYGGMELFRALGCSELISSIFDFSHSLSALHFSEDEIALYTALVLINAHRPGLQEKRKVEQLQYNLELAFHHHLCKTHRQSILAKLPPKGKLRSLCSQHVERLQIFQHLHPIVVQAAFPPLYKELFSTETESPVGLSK
Test: ROR gamma reporter gene assay (GAL4-RORγ LBD luciferase, Dual-Glo)
Type: cell-based
Details: HEK293T cells transfected with pM-ROR gamma, 8 concentrations 3.5 nM to 10.5 μM, 24 h incubation; read-out: result (pIC50, inhibition of RORγ transcriptional activity) (converted)
In short: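 First, HEK293T cells are transfected with the GAL4–RORγ LBD construct, a 5×UAS luciferase reporter and a constitutive renilla control. Next, test compounds are added over eight concentrations (3.5 nM to 10.5 μM). After 24 h at 37 °C, Dual-Glo luminescence is measured and pIC50 fitted.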

IC50 [pM]	Compound
6920	CC12CCC(CN(CC(=O)c3c(Cl)cc(F)cc3Cl)C(=O)c3cnn([C@H]4CC[C@](C)(C(=O)O)CC4)c3C(F)(F)F)(CC1)O2 [Example 244, trans-4-(4-((2-(2,6-dichloro-4-fluorophenyl)-2-oxoethyl)-((1-methyl-7-oxabicyclo[2.2.1]heptan-4-yl)methyl)carbamoyl)-5-(trifluoromethyl)pyrazol-1-yl)-1-methylcyclohexane-1-carboxylic acid]
8910	CC(C)(C)CN(CC(=O)c1c(Cl)cc(F)cc1Cl)C(=O)c1cnn(C23CCC(C(=O)O)(CC2)CC3)c1C(F)(F)F [Example 245, 4-(4-((2-(2,6-dichloro-4-fluorophenyl)-2-oxoethyl)-(2,2-dimethylpropyl)carbamoyl)-5-(trifluoromethyl)pyrazol-1-yl)bicyclo[2.2.2]octane-1-carboxylic acid]
11500	CC(C)(C)CN(CC(=O)c1c(Cl)cc(Cl)cc1Cl)C(=O)c1cnn(C23CCC(C(=O)O)(CC2)CC3)c1C(F)(F)F [Example 246, 4-(4-(2,2-dimethylpropyl-(2-oxo-2-(2,4,6-trichlorophenyl)ethyl)carbamoyl)-5-(trifluoromethyl)pyrazol-1-yl)bicyclo[2.2.2]octane-1-carboxylic acid]
32400	CC1(C)[C@@H]2C[C@H](N(CC(=O)c3c(Cl)cccc3C(F)(F)F)C(=O)c3cnn(C45CCC(C(=O)O)(CC4)CC5)c3C(F)(F)F)C[C@@H]21 [Example 247, 4-(4-((2-(2-chloro-6-(trifluoromethyl)phenyl)-2-oxoethyl)-((1R,3r,5S)-6,6-dimethyl-3-bicyclo[3.1.0]hexanyl)carbamoyl)-5-(trifluoromethyl)pyrazol-1-yl)bicyclo[2.2.2]octane-1-carboxylic acid]
21400	COc1cccc(Cl)c1C(=O)CN(C(=O)c1cnn(C23CCC(C(=O)O)(CC2)CC3)c1C(F)(F)F)[C@H]1C[C@@H]2[C@H](C1)C2(C)C [Example 248, 4-(4-((2-(2-chloro-6-methoxyphenyl)-2-oxoethyl)-((1R,3r,5S)-6,6-dimethyl-3-bicyclo[3.1.0]hexanyl)carbamoyl)-5-(trifluoromethyl)pyrazol-1-yl)bicyclo[2.2.2]octane-1-carboxylic acid]
< 3470	CC1(C)CC(CN(CC(=O)c2c(Cl)cc(F)cc2Cl)C(=O)c2cnn([C@H]3CC[C@](C)(C(=O)O)CC3)c2C(F)(F)F)C1 [Example 249, trans-4-(4-((2-(2,6-dichloro-4-fluorophenyl)-2-oxoethyl)-((3,3-dimethylcyclobutyl)methyl)carbamoyl)-5-(trifluoromethyl)pyrazol-1-yl)-1-methylcyclohexane-1-carboxylic acid]
< 3470	CC1(C)CC(CN(CC(=O)c2c(Cl)cc(Cl)cc2Cl)C(=O)c2cnn([C@H]3CC[C@](C)(C(=O)O)CC3)c2C(F)(F)F)C1 [Example 250, trans-4-(4-((3,3-dimethylcyclobutyl)methyl-(2-oxo-2-(2,4,6-trichlorophenyl)ethyl)carbamoyl)-5-(trifluoromethyl)pyrazol-1-yl)-1-methylcyclohexane-1-carboxylic acid]
6030	CC1(C)CC(CN(CC(=O)c2c(Cl)cccc2C(F)(F)F)C(=O)c2cnn([C@H]3CC[C@](C)(C(=O)O)CC3)c2C(F)(F)F)C1 [Example 251, trans-4-(4-((2-(2-chloro-6-(trifluoromethyl)phenyl)-2-oxoethyl)-((3,3-dimethylcyclobutyl)methyl)carbamoyl)-5-(trifluoromethyl)pyrazol-1-yl)-1-methylcyclohexane-1-carboxylic acid]
10000	COc1cccc(Cl)c1C(=O)CN(CC1CC(C)(C)C1)C(=O)c1cnn([C@H]2CC[C@](C)(C(=O)O)CC2)c1C(F)(F)F [Example 252, trans-4-(4-((2-(2-chloro-6-methoxyphenyl)-2-oxoethyl)-((3,3-dimethylcyclobutyl)methyl)carbamoyl)-5-(trifluoromethyl)pyrazol-1-yl)-1-methylcyclohexane-1-carboxylic acid]

Continued, molecule first:

Compound	IC50 [pM]
Cc1cc(Cl)c(C(=O)CN(CC2CC(C)(C)C2)C(=O)c2cnn(C34CCC(C(=O)O)(CC3)CC4)c2C(F)(F)F)c(Cl)c1 [Example 237, 4-(4-((2-(2,6-dichloro-4-methylphenyl)-2-oxoethyl)-((3,3-dimethylcyclobutyl)methyl)carbamoyl)-5-(trifluoromethyl)pyrazol-1-yl)bicyclo[2.2.2]octane-1-carboxylic acid]	< 3470
Cc1cc(Cl)c(C(=O)CN(CC2CC(C)(C)C2)C(=O)c2cnn([C@H]3CC[C@](C)(C(=O)O)CC3)c2C(F)(F)F)c(Cl)c1 [Example 238, trans-4-(4-((2-(2,6-dichloro-4-methylphenyl)-2-oxoethyl)-((3,3-dimethylcyclobutyl)methyl)carbamoyl)-5-(trifluoromethyl)pyrazol-1-yl)-1-methylcyclohexane-1-carboxylic acid]	4370
CC1(C)CCC(CN(CC(=O)c2c(Cl)cc(Cl)cc2Cl)C(=O)c2cnn([C@H]3CC[C@](C)(C(=O)O)CC3)c2C(F)(F)F)CC1 [Example 239, trans-4-(4-((4,4-dimethylcyclohexyl)methyl-(2-oxo-2-(2,4,6-trichlorophenyl)ethyl)carbamoyl)-5-(trifluoromethyl)pyrazol-1-yl)-1-methylcyclohexane-1-carboxylic acid]	< 3470
CC1(C)[C@@H]2C[C@H](N(CC(=O)c3c(Cl)cc(F)cc3Cl)C(=O)c3cnn(C45CCC(C(=O)O)(CC4)CC5)c3C(F)(F)F)C[C@@H]21 [Example 240, 4-(4-((2-(2,6-dichloro-4-fluorophenyl)-2-oxoethyl)-((1R,3r,5S)-6,6-dimethyl-3-bicyclo[3.1.0]hexanyl)carbamoyl)-5-(trifluoromethyl)pyrazol-1-yl)bicyclo(2.2.2)octane-1-carboxylic acid]	5500
CC1(C)[C@@H]2C[C@H](N(CC(=O)c3c(Cl)cc(Cl)cc3Cl)C(=O)c3cnn(C45CCC(C(=O)O)(CC4)CC5)c3C(F)(F)F)C[C@@H]21 [Example 241, 4-(4-(((1R,3r,5S)-6,6-dimethyl-3-bicyclo[3.1.0]hexanyl)-(2-oxo-2-(2,4,6-trichlorophenyl)ethyl)carbamoyl)-5-(trifluoromethyl)pyrazol-1-yl)bicyclo(2.2.2)octane-1-carboxylic acid]	5130
CC1(C)CCC(N(CC(=O)c2c(Cl)cccc2C(F)(F)F)C(=O)c2cnn(C34CCC(C(=O)O)(CC3)CC4)c2C(F)(F)F)CC1 [Example 242, 4-(4-((2-(2-chloro-6-(trifluoromethyl)phenyl)-2-oxoethyl)-(4,4-dimethylcyclohexyl)carbamoyl)-5-(trifluoromethyl)pyrazol-1-yl)bicyclo[2.2.2]octane-1-carboxylic acid]	31600
COc1cccc(Cl)c1C(=O)CN(C(=O)c1cnn(C23CCC(C(=O)O)(CC2)CC3)c1C(F)(F)F)C1CCC(C)(C)CC1 [Example 243, 4-(4-((2-(2-chloro-6-methoxyphenyl)-2-oxoethyl)-(4,4-dimethylcyclohexyl)carbamoyl)-5-(trifluoromethyl)pyrazol-1-yl)bicyclo[2.2.2]octane-1-carboxylic acid]	55000
